# Biological target: hOGG1 (Homo sapiens, UniProt O15527)
# Experiment: Biochemical fluorescence assay to measure enzymatic activity of hOGG1 (OGG1/APEX IC50)
# Set-up: Protein His-hOGG1 (12-323) was prepared; His (N); host or cells: E. coli
# Details: 1 nM OGG1+2 nM APEX+6 nM dsDNA (8-oxo-dG substrate); pH 7.5; RT 40 min; read-out: OGG1/APEX IC50
# Procedure: Biological Example 1: Biochemical Assay to Measure Enzymatic Activity of hOGG1 (OGG1/APEX IC50)
# The reported fluorescence-based assay (Donley et al ACS Chem Biol 2015; 10 (10), 2334-2343) was modified to include hAPE1/APEX1 protein. The oligonucleotide substrate with 8-oxo-dG lesion at X was prepared (LGC Biosearch, Petaluma, CA):
# Protein His-hOGG1 (12-323) was prepared by Chempartner Corporation via E. coliexpression and purification by Ni-NTA and S200 column to afford 95% purity by SDS-PAGE and SEC-HPLC analysis and hAPE1/APEX1 was purchased (SinoBiological). The assay was run in 384-well plates following the general procedure: (1) compound dilution; (2) addition of hOGG1/APEX1 to compound wells; (3) addition of DNA substrate to compound wells; (4) read Ex520/Em600 (TAMRA) fluorescence signal after 40 minutes; (5) calculate % inhibition/compound concentration; (6) calculate dose-response curve and IC50 value.
# • (1) 20 mM of compound solution was prepared in DMSO; • (2) Compounds were diluted to 10 mM in DMSO in ECHO Source plate (Labcyte PP-0200), by mixing […] DMSO; • (3) 4× dilution of compounds, for 10 points, by mixing […] DMSO; and • (4) Dispensed 150 nL compounds to assay plate (Corning 3573) in column 3-22. Dispensed 150 nL DMSO to Min and Max control wells in column 1-2 and column 23-24.
# • (1) Assay buffer was prepared (20 mM Tris pH 7.5, 100 mM KCl, 0.1% BSA, 0.01% Tween). • (2) […] buffer was added to Min control wells (Column 1-2). • (3) Enzyme was diluted to 2× with buffer (2 nM OGG1+4 nM APEX1). Dispensed […] (except Min control wells). Shake at 500 rpm at RT for 20 min. • (4) DNA substrate diluted to 2× with buffer (12 nM). Dispensed […]. Final concentration: 1 nM OGG1+2 nM APEX+6 nM dsDNA. Shake at RT for 40 min. • (5) Ex520/Em600 (TAMRA) was read.
# • (1) Calculated respective mean of Max and Min control wells. • (2) Converted data to percentage inhibition.
# Inhibition (%)=(Max mean−value)/(Max mean−Min mean)×100% • (3) Calculated sigmoidal curve (3-parameter) and IC50 (using GraphPad Prism software).
# hOGG1, sequence (O15527 12-323): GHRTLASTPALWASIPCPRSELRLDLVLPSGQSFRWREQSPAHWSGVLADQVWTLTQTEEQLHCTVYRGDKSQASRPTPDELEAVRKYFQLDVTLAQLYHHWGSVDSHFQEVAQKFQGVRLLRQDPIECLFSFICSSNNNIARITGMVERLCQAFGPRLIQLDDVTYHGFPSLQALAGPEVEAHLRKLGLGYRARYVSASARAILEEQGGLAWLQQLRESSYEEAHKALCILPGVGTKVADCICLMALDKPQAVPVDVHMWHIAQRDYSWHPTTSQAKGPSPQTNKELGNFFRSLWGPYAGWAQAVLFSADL
row,IC50 [nM],Compound
1,100 to 1000,"Cc1cc(NC(=O)[C@H]2CC[C@@H](N3Cc4c(C)cccc4C3=O)CC2)ccc1O [Example 220, (1s,4s)-N-(4-Hydroxy-3-methylphenyl)-4-(4-methyl-1-oxoisoindolin-2-yl)cyclohexanecarboxamide]"
2,1000 to 10000,"COCc1ccc(C)c2c1NC(=O)N([C@H]1CC[C@@H](C(=O)Nc3ccc(C)c(OC)c3)CC1)C2 [Example 1, (1s,4s)-N-(3-Methoxy-4-methylphenyl)-4-(8-(methoxymethyl)-5-methyl-2-oxo-1,2-dihydroquinazolin-3(4H)-yl)cyclohexanecarboxamide]"
3,> 10000,"COc1ccc(NC(=O)[C@]2(C)CC[C@@H](N3Cc4c(C)cccc4NC3=O)CC2)cc1C#N (single isomer, unassigned) [Example 108, (1r,4r)-N-(3-cyano-4-methoxyphenyl)-1-methyl-4-(5-methyl-2-oxo-1,2-dihydroquinazolin-3(4H)-yl)cyclohexanecarboxamide]"
4,100 to 1000,"COc1cc(NC(=O)[C@H]2CC[C@@H](N3Cc4c(Br)cc(NC(=O)CN5CCC5)cc4C3=O)CC2)ccc1C [Example 200, (1s,4s)-4-(6-(2-(Azetidin-1-yl)acetamido)-4-bromo-1-oxoisoindolin-2-yl)-N-(3-methoxy-4-methylphenyl)cyclohexanecarboxamide]"
5,100 to 1000,"C=Cc1cc(C)c2c(c1)NC(=O)N([C@H]1CC[C@@H](C(=O)Nc3ccc(C)c(OC)c3)CC1)C2 [Example 83, (1s,4s)-N-(3-methoxy-4-methylphenyl)-4-(5-methyl-2-oxo-7-vinyl-1,2-dihydroquinazolin-3(4H)-yl)cyclohexanecarboxamide]"
6,100 to 1000,"COc1ccc(NC(=O)[C@H]2CC[C@@H](N3Cc4c(C)cccc4C3=O)CC2)cc1OC [Example 219, (1s,4s)-N-(3,4-dimethoxyphenyl)-4-(4-methyl-1-oxoisoindolin-2-yl)cyclohexanecarboxamide]"
7,100 to 1000,"Cc1cccc2c1CN([C@H]1CC[C@@H](C(=O)Nc3ccc(Cl)c(F)c3)CC1)C(=O)N2 [Example 90, (1s,4s)-N-(4-chloro-3-fluorophenyl)-4-(5-methyl-2-oxo-1,2-dihydroquinazolin-3(4H)-yl)cyclohexanecarboxamide]"
8,< 100,"COc1cc(NC(=O)[C@H]2CC[C@@H](n3[nH]c4c(C)cccc4c3=O)CC2)ccc1C [Example 118, (1s,4s)-N-(3-Methoxy-4-methylphenyl)-4-(7-methyl-3-oxo-1,3-dihydro-2H-indazol-2-yl)cyclohexane-1-carboxamide]"
9,100 to 1000,"COc1cc(NC(=O)[C@H]2CC[C@@H](N3Cc4c(C)cccc4C3=O)CC2)ccc1Br [Example 120, (1s,4s)-N-(4-Bromo-3-methoxyphenyl)-4-(4-methyl-1-oxoisoindolin-2-yl)cyclohexane-1-carboxamide]"
10,< 100,"COc1cc(NC(=O)[C@H]2CC[C@@H](N3Cc4c(C)cc(CN5CC[C@H](O)C5)cc4NC3=O)CC2)ccc1C (stereo in doubt) [Example 98, (1R,4s)-4-(7-(((S)-3-hydroxypyrrolidin-1-yl)methyl)-5-methyl-2-oxo-1,2-dihydroquinazolin-3(4H)-yl)-N-(3-methoxy-4-methylphenyl)cyclohexanecarboxamide]"
11,100 to 1000,"Cc1cccc2c1CN([C@H]1CC[C@@H](C(=O)Nc3nc4ccccc4[nH]3)CC1)C2=O [Example 274, (1s,4s)-N-(1H-benzo[d]imidazol-2-yl)-4-(4-methyl-1-oxoisoindolin-2-yl)cyclohexanecarboxamide]"
12,100 to 1000,"COc1cc(NC(=O)[C@H]2CC[C@@H](N3Cc4c(Br)cccc4NC3=O)CC2)ccc1C [Example 66, (1s,4s)-4-(5-bromo-2-oxo-1,2-dihydroquinazolin-3(4H)-yl)-N-(3-methoxy-4-methylphenyl)cyclohexanecarboxamide]"
13,100 to 1000,"COc1ccc(NC(=O)[C@H]2CC[C@@H](N3Cc4c(C)cccc4NC3=O)CC2)cc1F [Example 89, (1s,4s)-N-(3-fluoro-4-methoxyphenyl)-4-(5-methyl-2-oxo-1,2-dihydroquinazolin-3(4H)-yl)cyclohexanecarboxamide]"
14,100 to 1000,"COc1cc(NC(=O)[C@H]2CC[C@@H](N3Cc4c(ccc(O)c4Br)C3=O)CC2)ccc1C [Example 189, (1s,4s)-4-(4-Bromo-5-hydroxy-1-oxoisoindolin-2-yl)-N-(3-methoxy-4-methylphenyl)cyclohexanecarboxamide]"
15,> 10000,"Cc1cccc2c1CN([C@H]1CC[C@@H](C(=O)Nc3cc[nH]c(=O)c3)CC1)C2=O [Example 250, (1s,4s)-4-(4-methyl-1-oxoisoindolin-2-yl)-N-(2-oxo-1,2-dihydropyridin-4-yl)cyclohexanecarboxamide]"
16,100 to 1000,"COc1cc(NC(=O)[C@H]2CC[C@@H](N3Cc4c(ccc(OC)c4C)NC3=O)CC2)ccc1C [Example 51, (1s,4s)-N-(3-Methoxy-4-methylphenyl)-4-(6-methoxy-5-methyl-2-oxo-1,2-dihydroquinazolin-3(4H)-yl)cyclohexanecarboxamide]"
17,< 100,"COc1cc(NC(=O)[C@H]2CC[C@@H](N3Cc4c(C)cc(OCCN(C)C)cc4NC3=O)CC2)ccc1C [Example 82, (1s,4s)-4-(7-(2-(dimethylamino)ethoxy)-5-methyl-2-oxo-1,2-dihydroquinazolin-3(4H)-yl)-N-(3-methoxy-4-methylphenyl)cyclohexanecarboxamide]"
18,100 to 1000,"COc1cc(NC(=O)[C@H]2CC[C@@H](n3[nH]c4c(C)cc(F)cc4c3=O)CC2)ccc1C [Example 119, (1s,4s)-4-(5-Fluoro-7-methyl-3-oxo-1,3-dihydro-2H-indazol-2-yl)-N-(3-methoxy-4-methylphenyl)cyclohexane-1-carboxamide]"
19,< 100,"COc1cc(NC(=O)[C@H]2CC[C@@H](N3Cc4c(C)cncc4NC3=O)CC2)ccc1C [Example 37, (1s,4s)-N-(3-Methoxy-4-methylphenyl)-4-(5-methyl-2-oxo-1,2-dihydropyrido[3,4-d]pyrimidin-3(4H)-yl)cyclohexanecarboxamide]"
20,< 100,"COc1cc(NC(=O)[C@H]2CC[C@@H](N3Cc4c(C)cc(C(=O)NCCN(C)C)cc4C3=O)CC2)ccc1C [Example 217, N-(2-(Dimethylamino)ethyl)-2-((1s,4s)-4-(3-methoxy-4-methylphenylcarbamoyl)cyclohexyl)-7-methyl-3-oxoisoindoline-5-carboxamide]"
21,> 10000,"COc1cc(NC(=O)[C@H]2CC[C@@H](N3Cc4c(cccc4C4CCC4)C3=O)CC2)ccc1C [Example 152, (1s,4s)-4-(4-Cyclobutyl-1-oxoisoindolin-2-yl)-N-(3-methoxy-4-methylphenyl)cyclohexanecarboxamide]"
22,< 100,"COc1cc(NC(=O)[C@H]2CC[C@@H](N3Cc4c(C)cc(O)cc4C3=O)CC2)ccc1C [Example 206, (1s,4s)-4-(6-Hydroxy-4-methyl-1-oxoisoindolin-2-yl)-N-(3-methoxy-4-methylphenyl)cyclohexanecarboxamide]"
23,< 100,"COc1cc(NC(=O)[C@H]2CC[C@@H](N3Cc4c(C)cc(OCCN(C)C)cc4C3=O)CC2)ccc1C [Example 209, (1s,4s)-4-(6-(2-(Dimethylamino)ethoxy)-4-methyl-1-oxoisoindolin-2-yl)-N-(3-methoxy-4-methylphenyl)cyclohexanecarboxamide]"
24,100 to 1000,"COc1cc(NC(=O)[C@H]2CC[C@@H](N3Cc4c(cccc4C(F)(F)F)NC3=O)CC2)ccc1C [Example 70, (1s,4s)-N-(3-methoxy-4-methylphenyl)-4-(2-oxo-5-(trifluoromethyl)-1,2-dihydroquinazolin-3(4H)-yl)cyclohexanecarboxamide]"
25,< 100,"COc1cc(NC(=O)[C@H]2CC[C@@H](N3Cc4c(C)ccc(Cl)c4C3=O)CC2)ccc1C [Example 144, (1s,4s)-4-(7-Chloro-4-methyl-1-oxoisoindolin-2-yl)-N-(3-methoxy-4-methylphenyl)cyclohexanecarboxamide]"
26,1000 to 10000,"Cc1cccc2c1CN([C@H]1CC[C@@H](C(=O)Nc3ccc4cnn(C)c4c3)CC1)C2=O [Example 215, (1s,4s)-4-(4-Methyl-1-oxoisoindolin-2-yl)-N-(1-methyl-1H-indazol-6-yl)cyclohexanecarboxamide]"
